Laboratory results reported in patent publication US20250296971A1, “GASTRIC INHIBITORY PEPTIDE RECEPTOR LIGANDS” (priority 2021, published 2025).
*1 amine or outer side, *2 acyl side, *3 side chain or, on linkers, in order; H or OH if unused. Where a SMILES comes first, the peptide text is derived from it. Bridges are numbered along the chain shown (N, C = ends). [ ]: non-standard residue; d: D form. The star is where a group is joined. ξ: configuration not given here. X5 = NC(=O)[C@H](CCCCNC(=O)CN1CCN(CC(=O)O)CCN(CC(=O)O)CCN(CC(=O)O)CC1)NC(=O)CCC(=O)NCCCOCCOCCOCCCN*; X3 = O=C(O)CN1CCN(CC(=O)O)CCN(CC(=O)NCCCOCCOCCOCCCN*)CCN(CC(=O)O)CC1; Trp(5-Cl) = N[C@@H](Cc1c[nH]c2ccc(Cl)cc12)C(=O)O; Trp(7-aza) = N[C@@H](Cc1c[nH]c2ncccc12)C(=O)O; 1Nal = N[C@@H](Cc1cccc2ccccc12)C(=O)O; mXylylene = c1cc(C[*:1])cc(C[*:2])c1; oXylylene = c1ccc(C[*:2])c(C[*:1])c1; X6 = c1cc(CSCCN[*:2])nc(C[*:1])c1; X7 = c1cc(CSCCN[*:2])cc(C[*:1])c1; Cya = N[C@@H](CS(=O)(=O)O)C(=O)O; Hyp = O=C(O)[C@@H]1C[C@@H](O)CN1; Suc = O=C(CCC(=O)[*:2])[*:1]; hLeu = CC(C)CC[C@H](N)C(=O)O; Aib = CC(C)(N)C(=O)O; ξP = O=C(O)C1CCCN1

What follows are molecules tested against T1, GIPR (CHO-K1-hGIPR cells) (Homo sapiens, UniProt P48546) (assay: FACS binding assay). Settings: competition with 20 nM GIP-057, 4° C. for 1 hour, read-out: pIC50 Category (converted).
T1 construct: host or cells: CHO-K1
T1 sequence (P48546 22-466): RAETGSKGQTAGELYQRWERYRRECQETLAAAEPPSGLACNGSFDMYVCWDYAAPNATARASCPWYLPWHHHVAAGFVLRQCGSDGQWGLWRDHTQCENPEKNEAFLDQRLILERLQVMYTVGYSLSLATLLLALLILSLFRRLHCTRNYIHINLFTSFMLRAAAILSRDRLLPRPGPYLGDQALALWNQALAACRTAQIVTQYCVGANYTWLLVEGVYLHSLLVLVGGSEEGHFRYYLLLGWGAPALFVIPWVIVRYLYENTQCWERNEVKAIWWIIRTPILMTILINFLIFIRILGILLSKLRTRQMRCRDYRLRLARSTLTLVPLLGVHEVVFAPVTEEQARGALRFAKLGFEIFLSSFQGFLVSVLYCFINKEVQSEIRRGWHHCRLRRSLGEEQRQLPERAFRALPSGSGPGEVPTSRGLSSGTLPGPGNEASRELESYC
Summary of the method: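 Read-out: flow cytometric median fluorescence intensity, APC/Cy5 channel, plotted vs peptide conc.; 4PL fit → EC50/pEC50 or IC50/pIC50. Cells: CHO-K1-hGIPR, Accutase-detached, 500.000/mL in PBS + 1% FCS. Detection: APC-streptavidin 1 μg/mL, 30 min, on ice.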

Row | SMILES | IC50 [µM]
1 | CC[C@H](C)[C@@H]1NC(=O)[C@H](CC(C)C)NC(=O)C(C)(C)NC(=O)[C@@H](NC(=O)[C@@H](CC(C)C)NC(=O)[C@H](CCC(=O)O)NC(=O)[C@@H]2CCCN2C(=O)[C@H](Cc2cccc3ccccc23)NC(=O)[C@H](Cc2c[nH]c3ncccc23)NC(=O)[C@H](CC(=O)O)NC(C)=O)CSCc2cccc(c2)CSC[C@@H](C(=O)NCCCOCCOCCOCCCNC(=O)CCC(=O)N[C@@H](CCCCNC(=O)CN2CCN(CC(=O)O)CCN(CC(=O)O)CCN(CC(=O)O)CC2)C(N)=O)NC1=O [GIP-303, Ac-Asp-7Nw-1Ni-Pro-Glu-leu-[Cys(3MeBn)-Aib-Leu-Ile-Cys]-Ttds-Lys(DOTA)-NH2] (Ac-D[Trp(7-aza)][1Nal]PE[dL]C[Aib]LIC-X5; linker 7-11 via mXylylene) | > 1
2 | CC[C@H](C)[C@@H]1NC(=O)[C@H](CC(C)C)NC(=O)[C@@H](NC(=O)[C@H](CCC(=O)O)NC(=O)[C@@H](CC(C)C)NC(=O)[C@H](Cc2c[nH]c3ccc(Cl)cc23)NC(=O)[C@@H]2CCCN2C(=O)[C@H](CC(=O)O)NC(=O)[C@H](Cc2c[nH]c3ccccc23)NC(=O)CCC(=O)NCCCOCCOCCOCCCNC(=O)CN2CCN(CC(=O)O)CCN(CC(=O)O)CCN(CC(=O)O)CC2)CSCc2cccc(c2)CSCCNC(=O)C(C)(C)NC1=O [GIP-304, DOTA-Ttds-Trp-Asp-Pro-5Clw-leu-Glu-[Cys(3MeBn)-Leu-Ile-Aib-AET]] ({X3-Suc}-WDP[Trp(5-Cl)][dL]ECLI[Aib]; linker 7-C via X7) | > 1
3 | CC[C@H](C)[C@@H]1NC(=O)C(C)(C)NC(=O)[C@H](CCC(=O)O)NC(=O)[C@@H](NC(=O)[C@H](CC(C)C)NC(=O)[C@H](Cc2c[nH]c3ccccc23)NC(=O)[C@H](Cc2c[nH]c3ccc(Cl)cc23)NC(=O)[C@@H]2CCCN2C(=O)[C@H](CC(=O)O)NC(=O)[C@@H](CC(C)C)NC(=O)CCC(=O)NCCCOCCOCCOCCCNC(=O)CN2CCN(CC(=O)O)CCN(CC(=O)O)CCN(CC(=O)O)CC2)CSCc2cccc(c2)CSCCNC1=O [GIP-305, DOTA-Ttds-leu-Asp-Pro-5Clw-Trp-Leu-[Cys(3MeBn)-Glu-Aib-Ile-AET]] ({X3-Suc}-[dL]DP[Trp(5-Cl)]WLCE[Aib]I; linker 7-C via X7) | > 1
4 | CC[C@H](C)[C@@H]1NC(=O)[C@@H](NC(=O)[C@H](Cc2c[nH]c3ccccc23)NC(=O)[C@H](CC(=O)O)NC(=O)[C@@H](CC(C)C)NC(=O)[C@H](CCC(=O)O)NC(=O)C2CCCN2C(=O)[C@H](Cc2c[nH]c3ccc(Cl)cc23)NC(=O)CCC(=O)NCCCOCCOCCOCCCNC(=O)CN2CCN(CC(=O)O)CCN(CC(=O)O)CCN(CC(=O)O)CC2)CSCc2cccc(c2)CSCCNC(=O)C(C)(C)NC(=O)[C@H](CC(C)C)NC1=O (stereo partly drawn) [GIP-306, DOTA-Ttds-5Clw-Pro-Glu-leu-Asp-Trp-[Cys(3MeBn)-Ile-Leu-Aib-AET]] ({X3-Suc}-[Trp(5-Cl)][ξP]E[dL]DWCIL[Aib]; linker 7-C via X7) | > 1
5 | CC[C@H](C)[C@@H]1NC(=O)[C@H](CC(C)C)NC(=O)[C@H](C)NC(=O)[C@@H](NC(=O)[C@H](CC(C)C)NC(=O)[C@H](CCC(=O)O)NC(=O)[C@@H]2CCCN2C(=O)[C@H](Cc2c[nH]c3ccccc23)NC(=O)[C@H](Cc2c[nH]c3ccccc23)NC(=O)[C@@H](CC(=O)O)NC(=O)[C@H](Cc2ccc(O)cc2)NC(=O)[C@@H](N)CCSC)CSCc2cccc(c2)CSC[C@@H](C(N)=O)NC1=O [GIP-307, H-Met-Tyr-asp-Trp-Trp-Pro-Glu-Leu-[Cys(3MeBn)-Ala-Leu-Ile-Cys]-NH2] (H-MY[dD]WWPELCALIC-NH2; linker 9-13 via mXylylene) | 0.1 to 0.794
6 | CC[C@H](C)[C@@H]1NC(=O)[C@H](CC(C)C)NC(=O)[C@H](C)NC(=O)[C@@H](NC(=O)[C@H](CC(C)C)NC(=O)[C@H](CCC(=O)O)NC(=O)[C@@H]2CCCN2C(=O)[C@H](Cc2c[nH]c3ccccc23)NC(=O)[C@@H](Cc2c[nH]c3ccccc23)NC(=O)[C@H](CC(=O)O)NC(=O)[C@H](Cc2ccc(O)cc2)NC(=O)[C@@H](N)CCSC)CSCc2cccc(c2)CSC[C@@H](C(N)=O)NC1=O [GIP-308, H-Met-Tyr-Asp-trp-Trp-Pro-Glu-Leu-[Cys(3MeBn)-Ala-Leu-Ile-Cys]-NH2] (H-MYD[dW]WPELCALIC-NH2; linker 9-13 via mXylylene) | 0.1 to 0.794

The next lines start with the values.

Row | IC50 [µM] | SMILES
7 | 0.1 to 0.794 | CC[C@H](C)[C@@H]1NC(=O)[C@H](CC(C)C)NC(=O)[C@H](C)NC(=O)[C@H](NC(=O)[C@H](CC(C)C)NC(=O)[C@H](CCC(=O)O)NC(=O)[C@@H]2CCCN2C(=O)[C@H](Cc2c[nH]c3ccccc23)NC(=O)[C@H](Cc2c[nH]c3ccccc23)NC(=O)[C@H](CC(=O)O)NC(=O)[C@H](Cc2ccc(O)cc2)NC(=O)[C@@H](N)CCSC)CSCc2cccc(c2)CSC[C@@H](C(N)=O)NC1=O [GIP-309] (H-MYDWWPEL[dC]ALIC-NH2; linker 9-13 via mXylylene)
8 | 0.1 to 0.794 | CC[C@H](C)[C@@H]1NC(=O)[C@H](CC(C)C)NC(=O)[C@H](C)NC(=O)[C@@H](NC(=O)[C@H](CC(C)C)NC(=O)[C@H](CCC(=O)O)NC(=O)[C@@H]2CCCN2C(=O)[C@H](Cc2c[nH]c3ccccc23)NC(=O)[C@H](Cc2c[nH]c3ccccc23)NC(=O)[C@H](CC(=O)O)NC(=O)[C@H](Cc2ccc(O)cc2)NC(=O)[C@@H](N)CCSC)CSCc2cccc(c2)CSC[C@H](C(N)=O)NC1=O [GIP-310] (H-MYDWWPELCALI[dC]-NH2; linker 9-13 via mXylylene)
9 | 0.1 to 0.794 | CC[C@H](C)[C@@H]1NC(=O)[C@H](CC(C)C)NC(=O)[C@H](C)NC(=O)[C@@H](NC(=O)[C@H](CC(C)C)NC(=O)[C@H](CCC(=O)O)NC(=O)[C@H](C)NC(=O)[C@H](Cc2c[nH]c3ccccc23)NC(=O)[C@H](Cc2c[nH]c3ccccc23)NC(=O)[C@H](CC(=O)O)NC(=O)[C@H](Cc2ccc(O)cc2)NC(=O)[C@@H](N)CCSC)CSCc2cccc(c2)CSC[C@@H](C(N)=O)NC1=O [GIP-311] (H-MYDWWAELCALIC-NH2; linker 9-13 via mXylylene)
10 | 0.1 to 0.794 | CC[C@H](C)[C@@H]1NC(=O)[C@H](C)NC(=O)[C@H](C)NC(=O)[C@@H](NC(=O)[C@H](CC(C)C)NC(=O)[C@H](CCC(=O)O)NC(=O)[C@@H]2CCCN2C(=O)[C@H](Cc2c[nH]c3ccccc23)NC(=O)[C@H](Cc2c[nH]c3ccccc23)NC(=O)[C@H](CC(=O)O)NC(=O)[C@H](Cc2ccc(O)cc2)NC(=O)[C@@H](N)CCSC)CSCc2cccc(c2)CSC[C@@H](C(N)=O)NC1=O [GIP-312] (H-MYDWWPELCAAIC-NH2; linker 9-13 via mXylylene)
11 | 0.1 to 0.794 | CC[C@H](C)[C@@H]1NC(=O)[C@@H](CC(C)C)NC(=O)[C@H](C)NC(=O)[C@@H](NC(=O)[C@H](CC(C)C)NC(=O)[C@H](CCC(=O)O)NC(=O)[C@@H]2CCCN2C(=O)[C@H](Cc2c[nH]c3ccccc23)NC(=O)[C@H](Cc2c[nH]c3ccccc23)NC(=O)[C@H](CC(=O)O)NC(=O)[C@H](Cc2ccc(O)cc2)NC(=O)[C@@H](N)CCSC)CSCc2ccccc2CSC[C@@H](C(N)=O)NC1=O [GIP-313] (H-MYDWWPELCA[dL]IC-NH2; linker 9-13 via oXylylene)
12 | 0.1 to 0.794 | CC[C@H](C)[C@@H]1NC(=O)[C@H](CC(C)C)NC(=O)[C@@H](C)NC(=O)[C@@H](NC(=O)[C@H](CC(C)C)NC(=O)[C@H](CCC(=O)O)NC(=O)[C@@H]2CCCN2C(=O)[C@H](Cc2c[nH]c3ccccc23)NC(=O)[C@H](Cc2c[nH]c3ccccc23)NC(=O)CCC(=O)O)CSCc2cccc(c2)CSC[C@@H](C(N)=O)NC1=O [GIP-314, HO-Succinyl-Trp-Trp-Pro-Glu-Leu-[Cys(3MeBn)-ala-Leu-Ile-Cys]-NH2] (Suc-WWPELC[dA]LIC-NH2; linker 6-10 via mXylylene)
13 | 0.1 to 0.794 | CC[C@H](C)[C@@H]1NC(=O)[C@H](CC(C)C)NC(=O)C(C)(C)NC(=O)[C@@H](NC(=O)[C@H](CCC(C)C)NC(=O)[C@H](CCC(=O)O)NC(=O)[C@@H]2CCCN2C(=O)[C@H](Cc2cccc3ccccc23)NC(=O)[C@H](Cc2c[nH]c3ccccc23)NC(=O)[C@H](CC(=O)O)NC(C)=O)CSCc2cccc(c2)CSC[C@@H](C(N)=O)NC1=O [GIP-315, Ac-Asp-Trp-1Ni-Pro-Glu-Hle-[Cys(3MeBn)-Aib-Leu-Ile-Cys]-NH2] (Ac-DW[1Nal]PE[hLeu]C[Aib]LIC-NH2; linker 7-11 via mXylylene)
14 | 0.1 to 0.794 | CC[C@H](C)[C@@H]1NC(=O)[C@H](CC(C)C)NC(=O)C(C)(C)NC(=O)[C@@H](NC(=O)[C@@H](CC(C)C)NC(=O)[C@H](CCC(=O)O)NC(=O)[C@@H]2C[C@@H](O)CN2C(=O)[C@H](Cc2c[nH]c3ccc(Cl)cc23)NC(=O)CNC(=O)[C@H](CS(=O)(=O)O)NC(C)=O)CSCc2cccc(n2)CSCCNC1=O [GIP-316, Ac-Cya-Gly-5Clw-Hyp-Glu-leu-[Cys(2Lut)-Aib-Leu-Ile-AET]] (Ac-[Cya]G[Trp(5-Cl)][Hyp]E[dL]C[Aib]LI; linker 7-C via X6)
15 | 0.1 to 0.794 | CC[C@H](C)[C@@H]1NC(=O)[C@H](CC(C)C)NC(=O)[C@H](C)NC(=O)[C@@H](NC(=O)[C@H](CC(C)C)NC(=O)[C@H](CCC(=O)O)NC(=O)[C@@H]2CCCN2C(=O)[C@H](Cc2c[nH]c3ccccc23)NC(=O)[C@H](Cc2c[nH]c3ccccc23)NC(=O)[C@H](CS(=O)(=O)O)NC(C)=O)CSCc2cccc(c2)CSC[C@@H](C(N)=O)NC1=O [GIP-317, Ac-Cya-Trp-Trp-Pro-Glu-Leu-[Cys(3MeBn)-Ala-Leu-Ile-Cys]-NH2] (Ac-[Cya]WWPELCALIC-NH2; linker 7-11 via mXylylene)
